SMILES strings stand for the structures. Like-named read-outs stand apart in the source and are kept apart here.

24 compounds from patent US8785638B2, “Thieno [2, 3-B] pyridine derivatives as viral replication inhibitors” (Katholieke Universiteit Leuven, priority 2009, dated 2014) can be followed below.

Series [1] has as its target LEDGF/p75-HIV-1 integrase interaction (Human immunodeficiency virus type 1 group M subtype B (isolate HXB2) (HIV-1), UniProt P04585). The experiment in a line: AlphaScreen assay of LEDGF-integrase interaction inhibition. It is filed as binding. The essentials: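 Compounds (0.1 up to 100 μM) pre-incubated 30 min at 4° C. with 300 nM His6-integrase in pH 7.4 Tris buffer, then 100 nM flag-LEDGF/p75 added for 1 h at 4° C. Ni-chelate acceptor and anti-flag donor beads (20 μg/ml each) were incubated 1 h at 30° C. before reading AlphaScreen emission.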
On the technique in general: In Alpha technology, singlet oxygen from a donor bead excites a nearby acceptor bead.

Series [2] concerns HIV-1 (IIIB), HIV-1 (NL4.3). The experiment in a line: microbe, parasite or virus in culture. It is filed as cell-based. The conditions noted are these: for EC50: Human immunodeficiency virus 1, IIIB, MT4, MT-4 cells, 50% protection against HIV-induced cytopathogenic effect, MTT; for SI: selectivity index, ratio of CC50 to EC50. In a few lines:
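MT-4 cells infected with HIV-1 IIIB or NL4.3; protection from virus-induced cytopathic effect measured by MTT reduction, OD 540 nm. EC50 is the dose giving 50% protection; CC50 is the concentration cutting mock-infected absorbance by 50%; SI = CC50/EC50.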
(Protection from cytopathic effect is a common read-out in antiviral testing.)

Series [3] in a line: Cytotoxicity in mock-infected MT-4 cells (MTT). It is filed as cell-based. The conditions noted are these: human, 50% cytotoxic concentration. In a few lines: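 MT-4 cells (HTLV-1-transformed T4 line) in RPMI 1640 with 10% FCS, mock-infected alongside HIV-infected cultures. Viability read by in situ MTT reduction, OD 540 nm. CC50 is the compound concentration cutting mock-infected control absorbance by 50%.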

Setting [4] is: His6-tagged integrase 300 nM, flag-LEDGF/p75 100 nM, read-out: Alphascreen IC50.

As to `CCCC(C(=O)O)c1c(C)nc2sc3c(c2c1-c1cccnc1)CCCC3` (stereo not drawn) [Cpd 150, 2-[2-Methyl-4-(pyridin-3-yl)-5,6,7,8-tetrahydro[1]benzothieno[2,3-b]pyridin-3-yl]pentanoic acid], the 50% inhibitory concentration (IC50) in series [1] (setting [4]) came to 1.37 µM. In series [2], the response was half-maximal at 0.78 µM (EC50) and the SI was 49. The compound also registered a CC50 in series [3] of 38.5 µM.

For the compound `Cc1nc2sc3c(c2c(-c2cccnc2)c1C(OC(C)(C)C)C(=O)O)CCCC3` (stereo not drawn) [Cpd 173, 2-[2-Methyl-4-(pyridin-3-yl)-5,6,7,8-tetrahydro[1]benzothieno[2,3-b]pyridin-3-yl]-2-tert-butoxyacetic acid], the concentration for half-maximal inhibition (IC50) in series [1] (setting [4]) came out at 5.9 µM. For the same compound, in series [2], the EC50 is 4.51 µM and the SI is 50. This compound gave a cytotoxic concentration (CC50) in series [3] of 225 µM.

Consider `CCCC(C(=O)O)c1c(C)nc2sc3c(c2c1-c1ccccc1Cl)CCCC3` (stereo not drawn) [Cpd 137, 2-[2-Methyl-4-(2-chlorophenyl)-5,6,7,8-tetrahydro[1]benzothieno[2,3-b]pyridin-3-yl]pentanoic acid], for which the half-inhibitory concentration (IC50) in series [1] (setting [4]) amounted to 51.9 µM. Besides, in series [2], the EC50 was over 111 µM. The compound further yielded a CC50 in series [3] of 111 µM.

With `CCCC(C(=O)O)c1c(C)nc2sc3c(c2c1-c1cccs1)CCC3` (stereo not drawn) [Cpd 130, 2-[2-Methyl-4-(2-thienyl)-6,7-dihydro-5H-cyclopenta[4,5]thieno[2,3-b]pyridin-3-yl]pentanoic acid], in series [1] (setting [4]), the half-maximal inhibitory concentration (IC50) was 30.6 µM. Further, in series [2], the EC50 amounted to 29.6 µM and the SI was 4. It took 130 µM to reach half-maximal cytotoxicity in series [3] (CC50).

For `CCCC(C(=O)O)c1c(-c2ccccc2)nc2sc3c(c2c1-c1ccc(C)cc1)CCC3` (stereo not drawn) [Cpd 126, 2-[2-phenyl-4-p-tolyl-6,7-dihydro-5H-cyclopenta[4,5]thieno[2,3-b]pyridin-3-yl]pentanoic acid], the IC50 in series [1] (setting [4]) was determined as 56.3 µM. In series [2], this compound gave a concentration giving a half-maximal response (EC50) of over 30.1 µM. The CC50 in series [3] was 30.1 µM.

As for `CCCC(C(=O)O)c1c(C)nc2sc3c(c2c1-c1ccc(OC)cc1)CCC3` (stereo not drawn) [Cpd 131, 2-[2-Methyl-4-(p-anisyl)-6,7-dihydro-5H-cyclopenta[4,5]thieno[2,3-b]pyridin-3-yl]pentanoic acid], the IC50 in series [1] is 4.54 µM. Further, in series [2], the concentration for a half-maximal effect (EC50) was determined as 2.43 µM and the SI was 52. In addition, in series [3], the half-maximal cytotoxic concentration (CC50) is 127 µM.

Take `C#CCC(C(=O)O)c1c(C)nc2sc3c(c2c1-c1ccc(C)cc1)CCCC3` (stereo not drawn) [Cpd 159, 2-[2-Methyl-4-(p-tolyl)-5,6,7,8-tetrahydro[1]benzothieno[2,3-b]pyridin-3-yl]-pent-4-yn-oic acid]: in series [1] (setting [4]), the concentration for half-maximal inhibition (IC50) was 13.3 µM. Moreover, in series [2], the response was half-maximal at 7.54 µM (EC50) and the SI was 13. For the same compound, the CC50 in series [3] was found to be 99.5 µM.

Regarding `CCCC(C(=O)O)c1c(C)nc2sc3c(c2c1-c1cccc(C)c1)CCCC3` (stereo not drawn) [Cpd 141, 2-[2-Methyl-4-(m-tolyl)-5,6,7,8-tetrahydro[1]benzothieno[2,3-b]pyridin-3-yl]pentanoic acid], in series [1] (setting [4]), the 50% inhibitory concentration (IC50) is 23.7 µM. In addition, in series [2], the midpoint of the response, the EC50, lay at 14.8 µM and the SI was 4. In series [3], this compound registered a half-maximal cytotoxic concentration (CC50) of 55.5 µM.

With `Cc1ccc(-c2c(C(CCCC(F)(F)F)C(=O)O)c(C)nc3sc4c(c23)CCCC4)cc1` (stereo not drawn) [Cpd 147, 2-[2-Methyl-4-(p-tolyl)-5,6,7,8-tetrahydro[1]benzothieno[2,3-b]pyridin-3-yl]-6,6,6-trifluorohexanoic acid], in series [1] (setting [4]), the half-inhibitory concentration (IC50) turned out to be 23.7 µM. For the same compound, in series [2], the EC50 worked out at 8.79 µM and the SI is given as 5. The CC50 in series [3] worked out at 41.5 µM.

`CCCC(C(=O)O)c1c(C)nc2sc3c(c2c1-c1ccc(C)cc1O)CCCC3.N` (stereo not drawn) [Cpd 161, 2-[2-Methyl-4-(2-hydroxy-4-methylphenyl)-5,6,7,8-tetrahydro[1]benzothieno[2,3-b]pyridin-3-yl]pentanoate ammonium salt] came in with an IC50 in series [1] of 0.0554 µM. Also, in series [2], it took 0.147 µM to reach a half-maximal effect (EC50) and the SI is 1061. This compound also showed a CC50 in series [3] of 157 µM.

For the compound `CCCC(C(=O)O)c1c(C)nc2sc3c(c2c1-c1ccc(C)cc1)CCN(Cc1ccccc1)C3` (stereo not drawn) [Cpd 163, 2-[7-Benzyl-2-methyl-4-(p-tolyl)-5,6,7,8-tetrahydro-9-thia-1,7-diaza-fluoren-3-yl]pentanoic acid], in series [1] (setting [4]), the concentration for half-maximal inhibition (IC50) stood at 4.5 µM. In series [2], this compound returned a concentration for a half-maximal effect (EC50) of over 23 µM. For the same compound, the CC50 in series [3] was found to be 23 µM.

For the compound `Cc1nc2sc3c(c2c(-c2ccc4c5c(ccnc25)CCO4)c1C(OC(C)(C)C)C(=O)O)CCCC3` (stereo not drawn) [Cpd 190], in series [1], the IC50 is 0.37 µM. Besides, in series [2], it took 0.015 µM to reach a half-maximal effect (EC50) and the SI was 8401. This compound came in with a CC50 in series [3] of 129 µM.

`CCCC(C(=O)O)c1c(C)nc2sc3c(c2c1-c1ccccc1)CCC3` (stereo not drawn) [Cpd 107, 2-[2-Methyl-4-phenyl-6,7-dihydro-5H-cyclopenta[4,5]thieno[2,3-b]pyridin-3-yl]pentanoic acid]: the IC50 in series [1] (setting [4]) stood at 34.7 µM. In addition, in series [2], it took 13.2 µM to reach a half-maximal effect (EC50) and the SI was 8. For the same compound, in series [3], the CC50 stood at 75.7 µM.

Regarding `CCCC(C(=O)O)c1c(C)nc2sc3c(c2c1-c1ccc(CC)cc1)CCC3` (stereo not drawn) [Cpd 117, 2-[2-Methyl-4-(4-ethylphenyl)-6,7-dihydro-5H-cyclopenta[4,5]thieno[2,3-b]pyridin-3-yl]pentanoic acid], in series [1] (setting [4]), the IC50 came to 0.78 µM. Besides, in series [2], the response was half-maximal at 0.53 µM (EC50) and the SI is listed as 107. This compound returned a CC50 in series [3] of 54.3 µM.

Consider `Cc1ccc(-c2c(C(Cc3ccccc3)C(=O)O)c(C)nc3sc4c(c23)CCC4)cc1` (stereo not drawn) [Cpd 134, 2-[2-Methyl-4-(4-methylphenyl)-6,7-dihydro-5H-cyclopenta[4,5]thieno[2,3-b]pyridin-3-yl]-3-phenylpropanoic acid], for which, in series [1] (setting [4]), the IC50 was 84.1 µM. In addition, in series [2], the EC50 is over 114 µM. The 50% cytotoxic concentration (CC50) in series [3] came to 114 µM.

`Cc1ccc(-c2c(CC(=O)O)c(C)nc3sc(C)cc23)cc1` [Cpd 106, (2,6-Dimethyl-4-p-tolylthieno[2,3-b]pyridin-5-yl)acetic acid]: the IC50 in series [1] (setting [4]) worked out at 53.9 µM. For the same compound, in series [2], it took 96.4 µM to reach a half-maximal effect (EC50) and the SI is over 1. Further, the half-maximal cytotoxic concentration (CC50) in series [3] is over 125 µM.

In the case of `CCCC(C(=O)O)c1c(C)nc2sc3c(c2c1-c1ccc(CC)cc1)CCCC3` (stereo not drawn) [Cpd 149, 2-[2-Methyl-4-(4-ethylphenyl)-5,6,7,8-tetrahydro[1]benzothieno[2,3-b]pyridin-3-yl]pentanoic acid], in series [1] (setting [4]), the IC50 came to 74.4 µM. Also, the EC50 in series [2] is over 67 µM. The compound also displayed a cytotoxic concentration (CC50) in series [3] of 67 µM.

Take `CCCC(C(=O)O)c1c(C)nc2sc3c(c2c1-c1ccc(C)cc1)CCC3C` (stereo not drawn) [Cpd 128, 2-[2-methyl-7-methyl-4-p-tolyl-6,7-dihydro-5H-cyclopenta[4,5]thieno[2,3-b]pyridin-3-yl]pentanoic acid]: the IC50 in series [1] (setting [4]) came to 11.3 µM. Further, in series [2], the concentration for a half-maximal effect (EC50) came out at 4.07 µM and the SI turned out to be 30. Besides, it took 121 µM to reach half-maximal cytotoxicity in series [3] (CC50).

Regarding `CCCC(C(=O)O)c1c(C)nc2sc3c(c2c1-c1cc2ccccc2o1)CCCC3` (stereo not drawn) [Cpd 154, 2-[2-Methyl-4-(benzofuran-2-yl)-5,6,7,8-tetrahydro[1]benzothieno[2,3-b]pyridin-3-yl]pentanoic acid], the IC50 in series [1] (setting [4]) came to 8.12 µM. Also, in series [2], the half-maximal effective concentration (EC50) stood at 6.28 µM and the SI is listed as 14. This compound registered a CC50 in series [3] of 90.5 µM.

In the case of `Cc1ccc(-c2c(C(CCC(F)(F)F)C(=O)O)c(C)nc3sc4c(c23)CCCC4)cc1` (stereo not drawn) [Cpd 158, 2-[2-Methyl-4-(p-tolyl)-5,6,7,8-tetrahydro[1]benzothieno[2,3-b]pyridin-3-yl]-5,5,5-trifluoropentanoic acid], the concentration for half-maximal inhibition (IC50) in series [1] (setting [4]) was found to be 13.5 µM. Also, in series [2], the half-maximal effective concentration (EC50) came to 5.48 µM and the SI is reported as 11. Further, the midpoint of cytotoxicity in series [3], the CC50, lay at 58.5 µM.

For the compound `COCCC(C(=O)O)c1c(C)nc2sc3c(c2c1-c1ccc(C)cc1)CCC3` (stereo not drawn) [Cpd 122, 2-[2-methyl-4-(p-tolyl)-6,7-dihydro-5H-cyclopenta[4,5]thieno[2,3-b]pyridin-3-yl]-4-O-methoxy-butanoic acid], the IC50 in series [1] (setting [4]) stood at 3.2 µM. In addition, in series [2], the concentration for a half-maximal effect (EC50) was determined as 5.3 µM and the SI is recorded as 15. The compound further displayed a CC50 in series [3] of 79.8 µM.

As for `CCCC(C(=O)O)c1c(CC)nc2sc3c(c2c1-c1ccc(C)cc1)CCCC3` (stereo not drawn) [Cpd 181, 2-[2-ethyl-4-(p-tolyl)-5,6,7,8-tetrahydro[1]benzothieno[2,3-b]pyridin-3-yl]pentanoic acid], the IC50 in series [1] (setting [4]) is 8.06 µM. In addition, in series [2], the response was half-maximal at 2.89 µM (EC50) and the SI came out at 28. In series [3], the CC50 came to 81 µM.

Consider `C=C(C(=O)O)c1c(C)nc2sc3c(c2c1-c1ccc(C)cc1)CCC3` [Cpd 124, 2-[2-methyl-4-p-tolyl-6,7-dihydro-5H-cyclopenta[4,5]thieno[2,3-b]pyridin-3-yl]acrylic acid], for which, in series [1] (setting [4]), the half-inhibitory concentration (IC50) is 41 µM. In addition, the concentration for a half-maximal effect (EC50) in series [2] is over 117 µM. The same compound returned a CC50 in series [3] of 117 µM.

As to `CCCC(C(=O)O)c1c(C)nc2sc3c(c2c1-c1ccc(OC(F)(F)F)cc1)CCCC3` (stereo not drawn) [Cpd 151, 2-[2-Methyl-4-(4-trifluoromethoxyphenyl)-5,6,7,8-tetrahydro[1]benzothieno[2,3-b]pyridin-3-yl]pentanoic acid], the IC50 in series [1] (setting [4]) was 21.5 µM. Moreover, in series [2], a half-maximal response (EC50) required 8 µM and the SI was 6. In series [3], this compound yielded a 50% cytotoxic concentration (CC50) of 48 µM.

As usually defined, the IC50 is the concentration that gives 50% inhibition. In general, EC50 refers to the concentration at which the effect is half-maximal. Read a high EC50 as a need for much substance. Broadly, the CC50 is the concentration giving 50% cytotoxicity. Read a high CC50 as better tolerance by the cells.
